Consider one compound from US7125662B2, “Method of identifying putative antibiotic resistance genes” (priority 2000, dated 2006).

For assay [1] the following is noted: Table 1, β-lactams; unit assumed; cited from earlier work.
Assay [2] has as its system host expressing Citrobacter freundii ampC gene LAT4. Put plainly: MIC conferred by ampC gene LAT4 cloned into common vector. It is filed as cell-based. An excerpt:
(§1) The plasmid-borne ampC genes shown in Table 1 (below) have been cloned into a common vector to ensure that all genes are expressed at the same level. […] That is completely expected because those genes were isolated from clinical samples and identified on the basis of conferring resistance to clinical drugs. ampC genes from two strains of Citrobacter freundii that were isolated in the 1920's, in the pre-antibiotic era, were also cloned into the same vector.

Assay [3] deals with host expressing Citrobacter freundii ampC gene LAT2. Put plainly: MIC conferred by ampC gene LAT2 cloned into common vector. It is filed as cell-based.
Text: as §1

Assay [4] concerns host expressing Citrobacter freundii ampC gene LAT1. Put plainly: MIC conferred by ampC gene LAT1 cloned into common vector. In kind it is cell-based.
Text: as §1

Assay [5] has as its system host expressing Citrobacter freundii ampC gene Cfre6879. Put plainly: MIC conferred by ampC gene Cfre6879 cloned into common vector. It is filed as cell-based. To be noted: Cfre 6879, gene from organism isolated in the 1920's.
Text: as §1

Assay [6] concerns E. coli K12 ampC. To be noted: gene cloned into a plasmid, effective promoter; cited from earlier work.
Assay [7] concerns No Plasmid host. Put plainly: MIC, host with no plasmid (Table 1). In kind it is cell-based. An excerpt: (§2) The plasmid-borne ampC genes shown in Table 1 (below) have been cloned into a common vector to ensure that all genes are expressed at the same level.
Assay [8] deals with plasmid-borne ampC genes CMY-2, CMY-3b, LAT-1, LAT-2, LAT-3, and LAT-4. Put plainly: Clinical resistance conferred by plasmid-borne ampC genes as a group. In kind it is cell-based, Citrobacter freundii. To be noted: all of CMY-2, CMY-3b, LAT-1, LAT-2, LAT-3, LAT-4.
Text: as §2

Assay [9] deals with host expressing Citrobacter freundii ampC gene LAT3. Put plainly: MIC conferred by ampC gene LAT3 cloned into common vector. In kind it is cell-based.
Text: as §1

The subject of assay [10] is host expressing Citrobacter freundii ampC gene Cfre8454. Put plainly: MIC conferred by ampC gene Cfre8454 cloned into common vector. It is filed as cell-based. To be noted: Cfre 8454, gene from organism isolated in the 1920's.
Text: as §1

Assay [11] has as its system host expressing Citrobacter freundii ampC gene CMY2. Put plainly: MIC conferred by ampC gene CMY2 cloned into common vector. In kind it is cell-based.
Text: as §1

Assay [12] deals with host expressing Citrobacter freundii ampC gene CMY3b. Put plainly: MIC conferred by ampC gene CMY3b cloned into common vector. It is filed as cell-based.
Text: as §1

Turning to `CC(=O)OCC1=C(C(=O)O)N2C(=O)[C@@H](NC(=O)Cc3cccs3)[C@H]2SC1` [Cephalothin], in [1], the Clin. = the MIC for clinical resistance was 32 µg/mL. In addition, the “Minimum Inhibitory Concentration (MIC)” value in [2] was 4096; in assay [3], 4096; in assay [4] it was 4096; in [5], 1024; in assay [7] it was 4; in [9], 2048. Besides, the “Minimum Inhibitory Concentration (MIC)” value in assay [10] is 2048; in assay [11] it was 1024; in assay [12], 2048. Further, the clinical resistance conferred entry was “confers clinical resistance” in assay [6] and “confer clinical resistance” in assay [8].
